Experimental data published in patent publication US7199157B2, “Use of treprostinil to improve kidney functions” (United Therapeutics Corporation, priority 2003, dated 2007).

Legend:
[1] = test system: patients suffering from poor kidney function; assay: Administration of Treprostinil to humans suffering from kidney malfunction/failure (chronic continuous subcutaneous infusion)
Method: The target dose is determined by titration in patients for a clinical effect. The medication is delivered by a small pump that is connected to a catheter placed under the skin. In this manner, increasing dosages of Treprostinil are administered to patients by chronic continuous subcutaneous infusion. […] An example of one target dose is 10 ng/kg/min.

[2] = test system: patients with class III or class IV heart failure; details: cited from earlier work
[3] = test system: human pulmonary arterial smooth muscle cells; details: cited from earlier work
[4] = test system: human alveolar macrophages; details: cited from earlier work

For `CCCCC[C@H](O)CC[C@@H]1[C@H]2Cc3cccc(OCC(=O)[O-])c3C[C@H]2C[C@H]1O.[Na+]` [Treprostinil], the urine production ([1]; at least two patients with poor kidney function, also on dialysis, treatment over the course of several weeks) is given as “improved urine production”, the common side effects ([1]; at peak dose, continuous subcutaneous infusion) is given as “headache and nausea” and the vasodilator effects [2] is given as “vasodilator effects”. For the same molecule, the “proliferation of human pulmonary arterial smooth muscle cells” value [3] was “inhibits proliferation” and the “inflammatory cytokine (tumor necrosis factor-α, interleukin-1β, interleukin-6, granulocyte macrophage colony-stimulating factor) secretion and gene expression” value [4] was “inhibits”.
